From PubChem BioAssay AID1845216 (Molecular Pharmacology Branch, DTP, NCI, 2023)
“And” between values parts separate entries of the source, which are not always exact repeats. Equal values may be shown once.

Test system: SW 982 tumor spheroid viability
Assay: Anticancer human tumor SW 982 cell line growth inhibition;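 also: spheroids exposed to compound for 7 days before readout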
Details: spheroids with HUVEC and MSC; for viability, T/C: stronger effect = lower value
Source text: Multicellular complex tumor spheroid response to DNA repair inhibitors in combination with DNA-damaging drugs
This study explores the anticancer activities of DNA-damaging drugs and inhibitors of DNA damage repair, both as single agents and in combinations. Complex tumor spheroids comprised of malignant cells, endothelial cells and mesenchymal stem cells served as an in vitro model for human solid tumors. This model system incorporates physiologically relevant features and patient-derived or established malignant cell lines with clinically relevant genetic alterations from many tumor types. Twenty-six patient-derived or established malignant cell lines were evaluated representing sarcoma, melanoma, small cell lung cancer (SCLC), non-small cell lung cancer (NSCLC), as well as bladder, ovarian and pancreatic cancers. The concentration ranges selected for each drug and investigational agent were based upon clinically achievable concentrations if the clinical Cmax of the agent was known.
Compounds. The drugs and compounds olaparib (NSC753686), talazoparib (NSC767125), berzosertib (NSC777718), elimusertib (NSC800525), nedisertib (NSC802822), VX-984 (NSC792969), AZD-1390 (NSC803789), temozolomide (NSC362856), topotecan (NSC609699), trabectedin (NSC813783), staurosporine (NSC755774), and gemcitabine (NSC613327) were obtained from the National Cancer Institute (NCI) Developmental Therapeutics Program Chemical Repository. The FDA-approved anticancer drug set is available from the Developmental Therapeutics Program at https://dtp.cancer.gov/organization/dscb/obtaining/available_plates.htm. […] The stock solutions were prepared in dimethyl sulfoxide (DMSO, Sigma-Aldrich, St. Louis, MO, cat. D2650) at 400-fold the tested concentration and stored at -70 degrees C. Prior to their use, the stock solutions were diluted in fresh medium and the final DMSO concentration in the assay was 0.25% (v/v). All drugs and investigational agents were tested over a range starting from a high concentration at or near the clinical Cmax and decreasing in half-log increments. If the clinical Cmax for an agent had not been determined, the highest concentration tested was 10 microM.
Cell Lines. The patient-derived cancer cell (PDC) lines: 156681-154-R-J1-PDC, 283228-195-R-J1-PDC, 287954-098-R-J1-PDC, 292921-168-R-J2-PDC, 349418-098-R-PDC, 425362-245-T-J1-PDC, 556581-035-R-J1-PDC, and BL0293-F563-PDC were received from the NCI Patient-Derived Models Repository (PDMR, https://pdmr.cancer.gov). The established cell lines HS-SY-2 (RRID:CVCL_8719), MPNST, and SYO-1 (RRID:CVCL_7146) were obtained from the Sloan Kettering Institute. The alveolar soft parts sarcoma cell line ASPS-1 (RRID:CVCL_S738) was established at the NCI and grown from internal seed stocks. The following established cell lines were purchased from the American Type Culture Collection (ATCC, Manassas, VA): G-401 (ATCC, cat. CRL-1441, RRID:CVCL_0270), SW982 (ATCC, cat. HTB-93, RRID:CVCL_1734), VA-ES-BJ (ATCC, cat. CRL-2138, RRID:CVCL_1785), NCI-H719 (ATCC, cat. CRL-5837, RRID:CVCL_1582), NCI-H196 (ATCC, cat. CRL-5823, RRID:CVCL_1509), NCI-H841 (ATCC, cat. CRL-5845, RRID:CVCL_1595), NCI-H1618 (ATCC, cat. CRL-5879, RRID:CVCL_1480), NCI-H1876 (ATCC, cat. CRL-5902, RRID:CVCL_1503), DMS 114 (ATCC, cat. CRL-2066; RRID:CVCL_1174), NCI-H211 (ATCC, cat. CRL-5824; RRID:CVCL_1529), and SW 1271 (ATCC, cat. CRL-2177, RRID:CVCL_1716). The small cell lung cancer cell line COR-L88 was purchased from Sigma-Aldrich (cat. 92031917-1VL, RRID:CVCL_1141). The non-small cell lung cancer cell lines NCI-H226 (RRID:CVCL_1544) and NCI-H322M (RRID:CVCL_1557) were established at the NCI and grown from internal seed stocks. Pooled donor human umbilical vein endothelial cells (HUVEC, Lonza, cat. CC-2519) and human mesenchymal stem cells (hMSC, Lonza, cat. PT-2501) were purchased from Lonza (Walkersville, MD).
Cell Culture. All cells were maintained in an incubator at 37 degrees C and 5% CO2 with 95% humidity. […]

## CNCc1ccc(-c2cc(-c3nc(-c4ccc(S(=O)(=O)C(C)C)cc4)cnc3N)on2)cc1
Compound 0.00949 µM
  viability, T/C: 94.4% and 97.7% and 104%
Compound 0.03 µM
  viability, T/C: 94.6% and 94.9% and 100%
Compound 0.0949 µM
  viability, T/C: 78.7% and 84% and 84.3%
Compound 0.3 µM
  viability, T/C: 43.7% and 49.3% and 31.1%
Compound 0.949 µM
  viability, T/C: 28% and 32.8% and 19.9%
Compound 3 µM
  viability, T/C: 13.5% and 17.2% and 2.19%
Curve of compound
  IC50: 263 nM and 341 nM and 205 nM

## CNCc1ccc(-c2cc(-c3nc(-c4ccc(S(=O)(=O)C(C)C)cc4)cnc3N)on2)cc1 + CC[C@@]1(O)C(=O)OCc2c1cc1n(c2=O)Cc2cc3c(CN(C)C)c(O)ccc3nc2-1
Curve of first compound, second compound 0.003 µM
  IC50: 207 nM
Curve of first compound, second compound 0.00949 µM
  IC50: 207 nM
Curve of first compound, second compound 0.03 µM
  IC50: 180 nM
Curve of first compound, second compound 0.0949 µM
  IC50: 134 nM
Curve of first compound, second compound 0.3 µM
  IC50: 48.6 nM
Second compound 0.003 µM, first compound 0.00949 µM
  viability, T/C: 96.2%
Second compound 0.003 µM, first compound 0.03 µM
  viability, T/C: 91%
Second compound 0.003 µM, first compound 0.0949 µM
  viability, T/C: 66.1%
Second compound 0.003 µM, first compound 0.3 µM
  viability, T/C: 36.4%
Second compound 0.003 µM, first compound 0.949 µM
  viability, T/C: 33.8%
Second compound 0.003 µM, first compound 3 µM
  viability, T/C: 11.2%
Second compound 0.00949 µM, first compound 0.00949 µM
  viability, T/C: 81.5%
Second compound 0.00949 µM, first compound 0.03 µM
  viability, T/C: 85.8%
Second compound 0.00949 µM, first compound 0.0949 µM
  viability, T/C: 69.5%
Second compound 0.00949 µM, first compound 0.3 µM
  viability, T/C: 37.8%
Second compound 0.00949 µM, first compound 0.949 µM
  viability, T/C: 28.6%
Second compound 0.00949 µM, first compound 3 µM
  viability, T/C: 12.7%
Second compound 0.03 µM, first compound 0.00949 µM
  viability, T/C: 80%
Second compound 0.03 µM, first compound 0.03 µM
  viability, T/C: 79.1%
Second compound 0.03 µM, first compound 0.0949 µM
  viability, T/C: 61%
Second compound 0.03 µM, first compound 0.3 µM
  viability, T/C: 37.7%
Second compound 0.03 µM, first compound 0.949 µM
  viability, T/C: 32.4%
Second compound 0.03 µM, first compound 3 µM
  viability, T/C: 17.5%
Second compound 0.0949 µM, first compound 0.00949 µM
  viability, T/C: 83.3%
Second compound 0.0949 µM, first compound 0.03 µM
  viability, T/C: 75.9%
Second compound 0.0949 µM, first compound 0.0949 µM
  viability, T/C: 57.2%
Second compound 0.0949 µM, first compound 0.3 µM
  viability, T/C: 31.8%
Second compound 0.0949 µM, first compound 0.949 µM
  viability, T/C: 25.1%
Second compound 0.0949 µM, first compound 3 µM
  viability, T/C: 12.4%
Second compound 0.3 µM, first compound 0.00949 µM
  viability, T/C: 53.1%
Second compound 0.3 µM, first compound 0.03 µM
  viability, T/C: 57.2%
Second compound 0.3 µM, first compound 0.0949 µM
  viability, T/C: 45.5%
Second compound 0.3 µM, first compound 0.3 µM
  viability, T/C: 23.8%
Second compound 0.3 µM, first compound 0.949 µM
  viability, T/C: 20.2%
Second compound 0.3 µM, first compound 3 µM
  viability, T/C: 6.34%

## CC(C)n1c(=O)n(C)c2cnc3cc(F)c(-c4ccc(OCCCN5CCCCC5)nc4)cc3c21
Compound 0.0316 µM
  viability, T/C: 99% and 107% and 96.4%
Compound 0.1 µM
  viability, T/C: 87.8% and 104% and 101%
Compound 0.316 µM
  viability, T/C: 91.9% and 96% and 90.8%
Compound 1 µM
  viability, T/C: 87% and 91.9% and 71.7%
Compound 3.16 µM
  viability, T/C: 68.2% and 74.7% and 61.6%
Compound 10 µM
  viability, T/C: 34.8% and 48.2% and 35.8%
Curve of compound
  IC50: 5950 nM and 9440 nM and 4930 nM
